Measured values reported in PubChem BioAssay (NCI).
Several values for one entry are separate records, joined by “and”; a condition that tells them apart may be missing. Identical values can stand only once.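 Five compound concentrations were applied to cells in 96-well plates for 48 hours; endpoints were derived by simple linear interpolation of the resulting dose-response curve. Here, GI50 denotes the concentration required for 50% inhibition of growth. The concentration for full growth arrest is given as TGI.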

Columns and labels:
Test in all cases: growth of human tumour cells (NCI), 48 h
SR leukemia = system: SR leukemia
CCRF-CEM leukemia = system: CCRF-CEM leukemia
OVCAR-5 ovarian = system: OVCAR-5 ovarian
SK-MEL-5 melanoma = system: SK-MEL-5 melanoma
HCC-2998 colon = system: HCC-2998 colon
COLO 205 colon = system: COLO 205 colon
EKVX NSCLC = system: EKVX NSCLC
A549 NSCLC = system: A549 NSCLC
HCT-15 colon = system: HCT-15 colon
UACC-257 melanoma = system: UACC-257 melanoma

Row | Compound | TGI (SR leukemia) [µM] | TGI (CCRF-CEM leukemia) | TGI (OVCAR-5 ovarian) [µM] | TGI (SK-MEL-5 melanoma) | TGI (HCC-2998 colon) | TGI (COLO 205 colon) [µM] | TGI (EKVX NSCLC) [µM] | TGI (A549 NSCLC) [µM] | TGI (HCT-15 colon) [µM] | TGI (UACC-257 melanoma) [µM] | GI50 (SR leukemia) [µM] | GI50 (CCRF-CEM leukemia) | GI50 (OVCAR-5 ovarian) [µM] | GI50 (SK-MEL-5 melanoma) | GI50 (HCC-2998 colon) | GI50 (COLO 205 colon) [µM] | GI50 (EKVX NSCLC) [µM] | GI50 (A549 NSCLC) [µM] | GI50 (HCT-15 colon) [µM] | GI50 (UACC-257 melanoma) [µM]
1 | C=C(C)[C@@H]1CC[C@]2(C)CC[C@]3(C)[C@H](CC[C@@H]4[C@@]5(C)CC[C@H](O)C(C)(C)[C@@H]5CC[C@]43C)[C@@H]12 | > 100 | 48.9 µM | > 100 | > 100 µM | > 100 µM | > 100 | > 100 | > 100 | > 100 | > 80.8 | – | – | – | – | – | – | – | – | – | –
2 | C=C1C(=O)O[C@H]2[C@H]1CC/C(CNC(=O)/C=C/c1cc(OC)c(OC)c(OC)c1)=C\CC[C@@]1(C)O[C@@H]21 | 9.38 | 4.37 µM | 12.9 | 7.33 µM | 6.97 µM | 2.45 | 13.8 | 23.7 | 13.5 | 5.72 | 0.383 | 0.478 µM | 2.44 | 2.49 µM | 2.95 µM | 0.618 | 2.22 | 8.04 | 2.96 | 1.76
3 | CCOC(=O)Nc1ccc2c(c1)/C(=N\NC(N)=S)c1ccccc1-2 | 24.3 | 31.5 µM | 59.4 | 7.59 µM | 22.5 µM | 15 | 41.2 | 19.7 | 18.4 | 12.7 | 3.13 | 3.49 µM | 16.8 | 2.44 µM | 4.77 µM | 3.74 | 4.29 | 3.79 | 3.25 | 3.55
4 | O=c1[nH]c(=O)c2cn[nH]c2[nH]1 | > 100 | > 100 µM | > 100 | > 100 µM | > 100 µM | > 100 | > 100 | > 100 | > 100 | > 100 | > 100 | > 100 µM | > 100 | > 100 µM | > 100 µM | > 100 | > 100 | > 100 | > 100 | > 100
5 | CC[C@@H]1c2c(C#N)ncn2-c2cnc(Nc3ccc(C(=O)NC4CCN(C5CCN(CC6CC6)CC5)CC4)cc3OC)nc2N1C1CCCC1 | 1.02 | 1.58 µM | 1.39 | 1.52 µM and 1.68 µM | 1.09 µM and 0.162 µM | – | 2.46 | 1.12 | 1.44 | 1.67 | 0.0387 | 0.00738 µM | 0.0449 | 0.13 µM and 0.182 µM | 0.04 µM and 0.0308 µM | – | 1.06 | 0.0401 | 0.379 | 0.0431
6 | CN(CCO)CC[C@H](CSc1ccccc1)Nc1ccc(S(=O)(=O)NC(=O)c2ccc(N3CCC([C@@H](O)c4ccccc4-c4ccc(Cl)cc4)CC3)cc2)cc1S(=O)(=O)C(F)(F)F | 35.7 | > 100 µM | > 50.4 | 3.25 µM | 1.69 µM | 4.5 | > 100 | > 100 | > 100 | 30.6 | 2.23 | 0.0472 µM | 4.6 | 1.69 µM | 0.286 µM | 1.46 | 20.4 | > 100 | > 100 | 4.85
7 | O=C1C(Cl)=C(Nc2cccc(Cl)c2)C(=O)N1Cc1ccc(Cl)cc1 | – | > 19.8 µM | 15.1 | 4.32 µM | 4.72 µM | 18.2 | 23.7 | 21 | 13 | 28.2 | 0.215 | 0.318 µM | 0.864 | 0.66 µM | 1.16 µM | 1.46 | 6.78 | 3.71 | 0.43 | 6.39
8 | CN(O)C(=O)SCC(NC(=O)CCC(N)C(=O)O)C(=O)NCC(=O)O (stereo not drawn) | > 2 | > 2 µM and 649 µM and 1240 µM | > 2 | > 2000 µM | > 2 µM | > 2000 | > 2000 | > 2000 | – | > 2000 | – | 198 µM and 520 µM | – | > 2000 µM | – | > 2000 | > 2000 | > 2000 | > 2000 | > 2000
9 | CCN(Cc1cc(Nc2nc(C)cn3c(-c4cn[nH]c4)cnc23)sn1)C(C)(C)CO | 1.64 | 9.55 µM | 10.7 | 2.08 µM | 4.56 µM | 0.132 | 15.2 | 2.21 | 11.4 | 9.93 | < 0.01 | < 0.01 µM | 0.0676 | 0.222 µM | 0.0741 µM | < 0.01 | 0.578 | 0.0543 | 0.0746 | 0.622
10 | CCOc1cccc(/C=N/N=C2\C(=O)Nc3c(Cl)cc(Cl)cc32)c1O | > 100 | > 100 µM | > 100 | > 100 µM | > 100 µM | > 100 | > 100 | > 100 | > 100 | > 100 | – | – | – | – | – | – | – | – | – | –
11 | COc1ccc(-c2nn(-c3cccc(Cl)c3)cc2-c2cc(-c3cccs3)[nH]c(=S)n2)cc1 | 31.9 | > 100 µM | > 100 | 10.9 µM | 16.4 µM | 5.59 | 21.7 | 16.5 | > 100 | 18 | 4 | 2.8 µM | 6.38 | 2.93 µM | 4.03 µM | 2.35 | 1.93 | 2.29 | 3.69 | 3.06
12 | ClCc1cccc2c(CCl)cccc12 | > 100 | > 100 µM | 27.9 | 21.4 µM | 8.3 µM | 7.14 | 16.6 | 24 | 30.1 | 12.6 | 0.901 | 2.31 µM | 12.7 | 8.23 µM | 2.48 µM | 2.4 | 2.83 | 8.77 | 5.92 | 2.6
13 | COc1cc(Br)c(C=Nc2cccc3cc(OC)c(OC)cc23)cc1OC | > 100 | > 100 µM | > 100 | > 100 µM | > 100 µM | > 100 | > 100 | > 100 | > 100 | > 100 | – | – | – | – | – | – | – | – | – | –
